These results are taken from patent publication US20100311748A1, “HETEROCYCLIC AMIDES USEFUL FOR THE TREATMENT OF CANCER AND PSORIASIS” (ASTRAZENECA AB, priority 2007, published 2010).

This test deals with Hedgehog pathway. The test is described as follows: Hedgehog Pathway Cellular Differentiation Assay (alkaline phosphatase production in C3H10T1/2 cells with Shh ligand). It is filed as cell-based. Conditions: Mus musculus, 72 h; for inhibition at 3 µM: C3H 10T1/2, 3 μM compound, Shh ligand conditioned media, alkaline phosphatase. Summed up:
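C3H10T1/2 cells in DMEM/2% FBS with Shh-conditioned medium were treated 72 h with compound, threefold dilutions from 30 μM to 3 nM. After RIPA lysis, alkaline phosphatase was read with pNp (1 mg/mL, diethanolamine pH 9.8) at 30 °C, absorbance 405 nm. Percent inhibition and IC50 came from absorbance.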

For the compound `Cc1ccc(-c2ncc[nH]2)cc1NC(=O)c1ccc(OCc2ccccn2)nc1` [Example 111, N-[5-(1H-imidazol-2-yl)-2-methylphenyl]-6-(pyridin-2-ylmethoxy)pyridine-3-carboxamide], the inhibition at 3 µM is -0.1%. With `Cc1ccc(-c2ncc[nH]2)cc1NC(=O)c1ccc(COc2ccccc2C#N)cc1` [Example 133, 4-[(2-cyanophenoxy)methyl]-N-[5-(1H-imidazol-2-yl)-2-methylphenyl]benzamide], the inhibition at 3 µM is 77%. As for `Cc1ccc(-c2ncc[nH]2)cc1NC(=O)c1ccc(OCc2cccc(N(C)C)n2)cc1` [Example 125, N-(5-(1H-imidazol-2-yl)-2-methylphenyl)-4-((6-(dimethylamino)pyridin-2-yl)methoxy)benzamide], the inhibition at 3 µM worked out at 76.7%. Still for that read-out and setting: the figure for `Cc1cc(Cl)c(-c2cn(C)cn2)cc1NC(=O)c1ccc(OCc2ccccn2)cc1` [Example 75, N-[4-chloro-2-methyl-5-(1-methyl-1H-imidazol-4-yl)phenyl]-4-(pyridin-2-ylmethoxy)benzamide] is 77.8%. Take `Cc1ccc(-c2ncn(C)c2CO)cc1NC(=O)c1ccc(OCc2ccccn2)cc1` [Example 78, N-{5-[5-(hydroxymethyl)-1-methyl-1H-imidazol-4-yl]-2-methylphenyl}-4-(pyridin-2-ylmethoxy)benzamide]: the inhibition at 3 µM was determined as 75.1%.

In the case of `Cc1cc(C)c(-c2ncc(C)n2C)cc1NC(=O)c1ccc(OCc2ccccn2)cc1` [Example 69, N-[5-(1,5-dimethyl-1H-imidazol-2-yl)-2,4-dimethylphenyl]-4-(pyridin-2-ylmethoxy)benzamide], the inhibition at 3 µM worked out at 83.9%. For `Cc1ccc(-c2ncc[nH]2)cc1NC(=O)c1ccc(N2CCOCC2)nc1` [Example 153, N-[5-(1H-imidazol-2-yl)-2-methyl-phenyl]-6-morpholin-4-yl-pyridine-3-carboxamide], the inhibition at 3 µM was 53.7%. The same measure, in the same setting: the figure for `Cc1ccc(-c2ncc[nH]2)cc1NC(=O)c1ccc(OCc2cc(N3CCOCC3)ccn2)cc1` [Example 89, N-[5-(1H-imidazol-2-yl)-2-methylphenyl]-4-[(4-morpholin-4-ylpyridin-2-yl)methoxy]benzamide] is 72.7%. On to `Cc1ccc(-c2ncc[nH]2)cc1NC(=O)c1ccc(OCc2cccc(C#N)c2)cc1` [Example 61, 4-[(3-cyanobenzyl)oxy]-N-[5-(1H-imidazol-2-yl)-2-methylphenyl]benzamide], for which the inhibition at 3 µM was 82.1%.

For the compound `Cc1ccc(-c2cnc(C)n2C)cc1NC(=O)c1ccc(OCc2ccccc2C#N)cc1` [Example 55, 4-[(2-cyanophenyl)methoxy]-N-[5-(2,3-dimethylimidazol-4-yl)-2-methyl-phenyl]benzamide], the inhibition at 3 µM is 84.3%. Still for that read-out and setting: the figure for `Cc1ccc(-c2cnn(CC(C)C)c2)cc1NC(=O)c1ccc(OCc2ccccn2)cc1` [Example 36, N-[2-methyl-5-[1-(2-methylpropyl)pyrazol-4-yl]phenyl]-4-(pyridin-2-ylmethoxy)benzamide] is 26.9%; for `Cc1ccc(-c2cn(C)cn2)cc1NC(=O)c1ccc(OCc2ccccc2C#N)cc1` [Example 53, 4-[(2-cyanophenyl)methoxy]-N-[2-methyl-5-(1-methylimidazol-4-yl)phenyl]benzamide] it is 80.4%.

As to `Cc1cc(Cl)c(-c2nccn2C)cc1NC(=O)c1ccc(OCc2ccccn2)cc1` [Example 74, N-[4-chloro-2-methyl-5-(1-methyl-1H-imidazol-2-yl)phenyl]-4-(pyridin-2-ylmethoxy)benzamide], the inhibition at 3 µM turned out to be 76.2%. Take `Cc1ccc(-c2nccn2C)cc1NC(=O)c1ccc(OCc2cc(Cl)ccn2)cc1` [Example 91, 4-[(4-chloropyridin-2-yl)methoxy]-N-[2-methyl-5-(1-methyl-1H-imidazol-2-yl)phenyl]benzamide]: the inhibition at 3 µM is 80.4%. Same read-out and setting: under `Cc1ccc(-c2ncc(C(F)(F)F)[nH]2)cc1NC(=O)c1ccc(OCc2ccccn2)cc1` [Example 28, N-{2-methyl-5-[5-(trifluoromethyl)-1H-imidazol-2-yl]phenyl}-4-(pyridin-2-ylmethoxy)benzamide] stands 91.9%; under `COc1cccc(COc2ccc(C(=O)Nc3cc(-c4ncc[nH]4)ccc3C)cc2)c1` [Example 41, N-(5-(1H-imidazol-2-yl)-2-methylphenyl)-4-(3-methoxybenzyloxy)benzamide], 51.9%. In the case of `Cc1ccc(-c2ncc[nH]2)cc1NC(=O)c1ccc(NCc2ccc(N3CCOCC3)cn2)cc1` [Example 140, N-(5-(1H-imidazol-2-yl)-2-methylphenyl)-4-((5-morpholinopyridin-2-yl)methylamino)benzamide], the inhibition at 3 µM was determined as 85.5%.

`Cc1ccc(-c2ncc[nH]2)cc1NC(=O)c1ccc(OCc2cc(N3CCN(CCO)CC3)ccn2)cc1` [Example 90, 4-({4-[4-(2-hydroxyethyl)piperazin-1-yl]pyridin-2-yl}methoxy)-N-[5-(1H-imidazol-2-yl)-2-methylphenyl]benzamide]: the inhibition at 3 µM turned out to be 61.5%. The same measure, in the same setting: under `Cc1cn(C)c(-c2ccc(C)c(NC(=O)c3ccc(OCc4cccc(OCCN5CCOCC5)c4)cc3)c2)n1` [Example 66, N-[5-(1,4-dimethyl-1H-imidazol-2-yl)-2-methylphenyl]-4-{[3-(2-morpholin-4-ylethoxy)benzyl]oxy}benzamide] stands 69.6%; under `Cc1ccc(-c2cncn2C)cc1NC(=O)c1ccc(OCc2ccccc2C#N)cc1` [Example 52, 4-[(2-cyanophenyl)methoxy]-N-[2-methyl-5-(3-methylimidazol-4-yl)phenyl]benzamide], 79.8%. In the case of `Cc1ccc(-c2nc(CO)c[nH]2)cc1NC(=O)c1ccc(OCc2ccccn2)cc1` [Example 88, N-{5-[4-(hydroxymethyl)-1H-imidazol-2-yl]-2-methylphenyl}-4-(pyridin-2-ylmethoxy)benzamide], the inhibition at 3 µM came out at 84.7%. Still for that read-out and setting: the figure for `Cc1ccc(-c2ncc[nH]2)cc1NC(=O)c1ccc(OCC2CCCCN2C)cc1` (stereo not shown) [Example 143, N-(5-(1H-imidazol-2-yl)-2-methylphenyl)-4-((1-methylpiperidin-2-yl)methoxy)benzamide] is 62.3%. On the same count and under the same terms, under `COc1ccnc(COc2ccc(C(=O)Nc3cc(-c4nccn4C)ccc3C)cc2)c1` [Example 93, 4-[(4-methoxypyridin-2-yl)methoxy]-N-[2-methyl-5-(1-methyl-1H-imidazol-2-yl)phenyl]benzamide] stands 79.9%; under `Cc1ccc(-c2ncc[nH]2)cc1NC(=O)c1cccc(C#N)c1` [Example 146, 3-cyano-N-[5-(1H-imidazol-2-yl)-2-methyl-phenyl]benzamide], 17.1%; under `Cc1ccc(-c2ncc[nH]2)cc1NC(=O)c1ccc(/C=C/c2ccccn2)cc1` [Example 109, N-[5-(1H-imidazol-2-yl)-2-methylphenyl]-4-[(E)-2-pyridin-2-ylethenyl]benzamide], 91.3%. Still for that read-out and setting: under `Cc1ccc(-c2ncc(C)n2C)cc1NC(=O)c1ccc(OCc2ccccc2C#N)cc1` [Example 49, 4-[(2-cyanophenyl)methoxy]-N-[5-(1,5-dimethylimidazol-2-yl)-2-methyl-phenyl]benzamide] stands 82%; under `Cc1ccc(-c2cc(C(F)(F)F)n[nH]2)cc1NC(=O)c1ccc(OCc2ccccn2)cc1` [Example 37, N-[2-methyl-5-[5-(trifluoromethyl)-2H-pyrazol-3-yl]phenyl]-4-(pyridin-2-ylmethoxy)benzamide], 38.2%. For the compound `Cc1ccc(-c2ncc(CN3CCN(C)CC3)s2)cc1NC(=O)c1ccc(OCc2ccccn2)cc1` [Example 2, N-[2-methyl-5-[5-[(4-methylpiperazin-1-yl)methyl]1,3-thiazol-2-yl]phenyl]-4-(pyridin-2-ylmethoxy)benzamide], the inhibition at 3 µM came out at 72.3%.

In the case of `CCc1c[nH]c(-c2ccc(C)c(NC(=O)c3ccc(OCc4ccccn4)cc3)c2)n1` [Example 85, N-[5-(4-ethyl-1H-imidazol-2-yl)-2-methylphenyl]-4-(pyridin-2-ylmethoxy)benzamide], the inhibition at 3 µM was 78.8%. The same measure, in the same setting: under `Cc1ccc(-c2ncc[nH]2)cc1NC(=O)c1ccc(COc2ccccn2)cc1` [Example 134, N-[5-(1H-imidazol-2-yl)-2-methylphenyl]-4-[(pyridin-2-yloxy)methyl]benzamide] stands 77.3%; under `Cc1ccc(-c2ncc[nH]2)cc1NC(=O)c1ccc(C(F)(F)F)nc1` [Example 150, N-[5-(1H-imidazol-2-yl)-2-methyl-phenyl]-6-(trifluoromethyl)pyridine-3-carboxamide], 19.4%. Consider `Cc1ccc(-c2ncc(C)n2C)cc1NC(=O)c1ccc(OCc2ccccn2)cc1` [Example 20, N-[5-(1,5-dimethylimidazol-2-yl)-2-methyl-phenyl]-4-(pyridin-2-ylmethoxy)benzamide], for which the inhibition at 3 µM was found to be 58.1%. The compound further yielded an IC50 (C3H 10T1/2, Shh ligand conditioned media, alkaline phosphatase (pNp, 405 nm)) of less than 3 nM. For the compound `Cc1ccc(-c2nccn2C)cc1NC(=O)c1ccc(OCc2ccccn2)cc1` [Example 13, N-[2-methyl-5-(1-methylimidazol-2-yl)phenyl]-4-(pyridin-2-ylmethoxy)benzamide], the inhibition at 3 µM worked out at 64.9%. On the same count and under the same terms, under `Cc1ccc(-c2ncc[nH]2)cc1NC(=O)c1cccc(Cl)c1` [Example 152, 3-chloro-N-[5-(1H-imidazol-2-yl)-2-methyl-phenyl]benzamide] stands 45.3%; under `Cc1ccc(-c2c[nH]nn2)cc1NC(=O)c1ccc(OCc2ccccn2)cc1` [Example 114, N-(2-methyl-5-(1H-1,2,3-triazol-4-yl)phenyl)-4-(pyridin-2-ylmethoxy)benzamide], 73.2%; under `Cc1ccc(-c2nc(C3CC3)c[nH]2)cc1NC(=O)c1ccc(OCc2ccccn2)cc1` [Example 87, N-[5-(4-cyclopropyl-1H-imidazol-2-yl)-2-methylphenyl]-4-(pyridin-2-ylmethoxy)benzamide], 74.8%.
